Experimental data from paper PMC8160969, “Organoruthenium Complexes with Benzo-Fused Pyrithiones Overcome Platinum Resistance in Ovarian Cancer Cells” (Cancers, 2021).

Target: T1, thioredoxin reductase (TrxR) (Rattus norvegicus, UniProt O89049)
T1 construct: gene Txnrd1; commercially available rat liver TrxR
T1 sequence (O89049 1-499): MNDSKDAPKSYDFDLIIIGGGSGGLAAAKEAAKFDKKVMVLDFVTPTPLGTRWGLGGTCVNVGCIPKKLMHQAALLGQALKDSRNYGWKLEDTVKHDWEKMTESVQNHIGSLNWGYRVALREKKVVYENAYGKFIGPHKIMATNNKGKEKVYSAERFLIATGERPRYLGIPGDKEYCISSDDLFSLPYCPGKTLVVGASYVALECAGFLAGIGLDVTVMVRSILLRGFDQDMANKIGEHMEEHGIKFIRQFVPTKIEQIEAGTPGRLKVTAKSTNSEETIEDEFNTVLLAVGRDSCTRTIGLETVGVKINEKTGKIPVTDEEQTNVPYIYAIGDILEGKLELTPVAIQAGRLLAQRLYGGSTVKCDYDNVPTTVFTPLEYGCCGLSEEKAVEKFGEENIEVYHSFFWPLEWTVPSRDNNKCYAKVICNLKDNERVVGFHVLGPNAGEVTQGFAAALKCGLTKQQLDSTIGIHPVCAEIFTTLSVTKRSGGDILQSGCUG
Assay: DTNB reduction assay with NADPH and rat liver TrxR, […] min exposure, absorbance at […] nm
Assay type: biochemical

Cc1ccc(C(C)C)cc1.[Cl][Ru-]1[O]N2C=Cc3ccccc3C2=[S+]1 [1a, organoruthenium(II) chlorido complex 1a]
IC50: 4.1 ± 0.16 µM
